Where “and” joins values, the source holds several entries; their conditions need not be identical. Equal entries are not always repeated. Where two headings read alike, the source gives them in different places.
Assays:
full-length NDM-1 [1] = target: T1, full-length NDM-1 (Klebsiella pneumoniae, UniProt C7C422); type: biochemical, E. coli; parameters: The full-length NDM-1 enzyme was isolated to 95% purity as indicated by the SDS-PAGE; His6 tag (pET30a leader) (N, cleaved yes); made in house; host or cells: E. coli BL21 (DE3) carrying pET30a-NDM-1
From the text: (§1) Benzylpenicillin (Sangon, Shanghai, China), ampicillin (Sangon, Shanghai, China), cefuroxime (Sigma, St. Louis, USA), ceftazidime (TCI, Shanghai, China), ceftizoxime (TCI, Shanghai, China), cefpiramide (Shandong Lukang, Shandong, China), imipenem (Shenzhen Haibin, Guangdong, China), meropenem (Zhejiang Hisun, Zhejiang, China) and aztreonam (Hunan Kelun, Hunan, China) were used as substrates for determining the steady-state kinetic constants.
(§2) Hydrolysis of the antibiotics by NDM-1 was followed by monitoring the variation in the absorbance of the β-lactam solution in 20 mM HEPES buffer, pH 6.8, 0.25 M NaCl, 2 mM 1,4-Dithio-DL-threitol (DTT) (Sangon, Shanghai, China), 100 µM Zn(NO3)2. All the measurements were made on a UV−1800 spectrophotometer (Mapada, Shanghai, China). The reactions were performed in a total volume of 100 µl at 30°C. BSA (20 µg/ml) was added to diluted solutions of β-lactamase in order to prevent enzyme denaturation. […] The extinction coefficients and wavelengths used in the assays were those described by Laraki et al and Thomas et al. The steady-state kinetic parameters (K m and k cat) were determined more than three times by fitting the concentration dependence of initial rate measurements to the Michaelis−Menten equation using GraphPad Prism (GraphPad Software, La Jolla, America).

full-length NDM-1 [2] = target: T1, full-length NDM-1; experiment: biochemical
Method: The compounds to be tested were dissolved in DMSO prior to incubation with the enzyme, with the final concentration of DMSO in the assay not exceeding 0.5% (vol/vol). At concentrations below 0.5%, no effect of DMSO on the enzyme activity was observed. IC50s were deduced from a plot of percent loss of activity versus inhibitor concentration. […] The precision of these determinations was within the range of precision 10%.

[3] = tested on: E. coli BL21 (DE3)/pET30a-NDM-1; experiment: microbe, parasite or virus in culture; type: cell-based; conditions: for synergistic antibacterial activity with meropenem / sensitization of the strain to clinically achievable concentrations of meropenem: result in words; for sensitization of the strain to clinically achievable concentrations of meropenem: inhibitor at the level of 100 µM
Method: E. coli BL21 (DE3) was used as a control in the experiment. E. coli BL21 (DE3)/pET30a-NDM-1 was grown overnight in MH broth media (Tianhe Microbial Agents, Hangzhou, China) containing kanamycin (30 µg/ml) at 37°C. Determination of antibacterial synergy was completed using a twofold serial dilution method, as recommended by CLSI guidelines. […] The 96-well microplates were incubated at 37°C with continuous shaking for 18 h and a reading at 630 nm was taken to determine minimum inhibitory concentrations (MICs), [22]. […] Each concentration reading was repeated three times. All of the above experiments were repeated at least twice.

[4] = Solubility behaviour in testing buffer of the IC50 assay; type: physicochemical; conditions: result in words
E. coli BL21 (DE3) = experiment: MIC of meropenem against control strain; type: cell-based; conditions: Escherichia coli
Method: E. coli BL21 (DE3)/pET30a-NDM-1, which is similar to clinical NDM-1-carrying isolates and safer than clinical isolates, was used to evaluate the potential ability of NDM-1 inhibitors to reverse NDM-1-mediated carbapenem resistance in bacteria. E. coli BL21 (DE3) was used as a control in the experiment. E. coli BL21 (DE3)/pET30a-NDM-1 was grown overnight in MH broth media (Tianhe Microbial Agents, Hangzhou, China) containing kanamycin (30 µg/ml) at 37°C. Determination of antibacterial synergy was completed using a twofold serial dilution method, as recommended by CLSI guidelines. […] The 96-well microplates were incubated at 37°C with continuous shaking for 18 h and a reading at 630 nm was taken to determine minimum inhibitory concentrations (MICs), [22]. […] Each concentration reading was repeated three times. All of the above experiments were repeated at least twice.

[5] = tested on: CC1(C)S[C@@H]2[C@H](NC(=O)[C@H](N)c3ccccc3)C(=O)N2[C@H]1C(=O)O; experiment: purified protein, by the assay type; type: biochemical, E. coli; conditions: other: substrate hydrolysis, 20 mM HEPES pH 6.8, 30°C
From the text: as §1, §2

[6] = tested on: CC(C)(O/N=C(\C(=O)N[C@@H]1C(=O)N2C(C(=O)[O-])=C(C[n+]3ccccc3)CS[C@H]12)c1csc(N)n1)C(=O)O; experiment: purified protein, by the assay type; type: biochemical, E. coli; conditions: other: substrate hydrolysis, 20 mM HEPES pH 6.8, 30°C
From the text: as §1, §2

[7] = tested on: C[C@@H](O)[C@H]1C(=O)N2C(C(=O)O)=C(SCCN=CN)C[C@H]12; experiment: purified protein, by the assay type; type: biochemical, E. coli; conditions: other: substrate hydrolysis, 20 mM HEPES pH 6.8, 30°C
From the text: as §1, §2

[8] = tested on: CO/N=C(\C(=O)N[C@@H]1C(=O)N2C(C(=O)O)=C(COC(N)=O)CS[C@H]12)c1ccco1; experiment: purified protein, by the assay type; type: biochemical, E. coli; conditions: other: substrate hydrolysis, 20 mM HEPES pH 6.8, 30°C
From the text: as §1, §2

[9] = tested on: CC1(C)S[C@@H]2[C@H](NC(=O)Cc3ccccc3)C(=O)N2[C@H]1C(=O)O; experiment: purified protein, by the assay type; type: biochemical, E. coli; conditions: other: substrate hydrolysis, 20 mM HEPES pH 6.8, 30°C
From the text: as §1, §2

[10] = tested on: CO/N=C(\C(=O)N[C@@H]1C(=O)N2C(C(=O)O)=CCS[C@H]12)c1csc(N)n1; experiment: purified protein, by the assay type; conditions: other: substrate hydrolysis, 20 mM HEPES pH 6.8, 30°C
[11] = tested on: Cc1cc(O)c(C(=O)N[C@@H](C(=O)N[C@@H]2C(=O)N3C(C(=O)O)=C(CSc4nnnn4C)CS[C@H]23)c2ccc(O)cc2)cn1; experiment: purified protein, by the assay type; conditions: other: substrate hydrolysis, 20 mM HEPES pH 6.8, 30°C
[12] = substrate hydrolysis, 20 mM HEPES pH 6.8, 30°C

T1 sequence (C7C422 29-270 limits assumed): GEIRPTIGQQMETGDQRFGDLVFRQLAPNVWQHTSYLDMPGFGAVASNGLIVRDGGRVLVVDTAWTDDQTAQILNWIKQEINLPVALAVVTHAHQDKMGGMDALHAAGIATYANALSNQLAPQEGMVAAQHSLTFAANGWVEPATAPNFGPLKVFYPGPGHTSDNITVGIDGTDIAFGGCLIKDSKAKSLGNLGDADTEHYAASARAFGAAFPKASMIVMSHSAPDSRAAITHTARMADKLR

In the case of CC1(C)S[C@@H]2[C@H](NC(=O)[C@H](N)c3ccccc3)C(=O)N2[C@H]1C(=O)O [Ampicillin, ampicillin], the K m (full-length NDM-1 [1]; [12]) is reported as 18 ± 1 µM and the K m (full-length NDM-1 [1]; substrate hydrolysis, 20 mM HEPES pH 6.8, 30°C, listed as ampicillin) is reported as 18 µM.
In the case of C[C@H]1[C@H](NC(=O)/C(=N\OC(C)(C)C(=O)O)c2csc(N)n2)C(=O)N1S(=O)(=O)O [Aztreonam, aztreonam], the “hydrolysis by NDM-1 / kinetic constants” value (full-length NDM-1 [1]; result in words) is reported as “kinetic constants could not be calculated”.
With CC1(C)S[C@@H]2[C@H](NC(=O)Cc3ccccc3)C(=O)N2[C@H]1C(=O)O [Benzylpenicillin] the K m (full-length NDM-1 [1]; [12]) was 13 ± 1 µM and the K m (full-length NDM-1 [1]; substrate hydrolysis, 20 mM HEPES pH 6.8, 30°C, listed as benzylpenicillin) was 13 µM.
For Cc1cc(O)c(C(=O)N[C@@H](C(=O)N[C@@H]2C(=O)N3C(C(=O)O)=C(CSc4nnnn4C)CS[C@H]23)c2ccc(O)cc2)cn1 [Cefpiramide, cefpiramide], the K m (full-length NDM-1 [1]; [12]) was 39 ± 3 µM.
Work on CC(C)(O/N=C(\C(=O)N[C@@H]1C(=O)N2C(C(=O)[O-])=C(C[n+]3ccccc3)CS[C@H]12)c1csc(N)n1)C(=O)O [Ceftazidime, ceftazidime] yielded a K m (full-length NDM-1 [1]; [12]) of 129 ± 9 µM and a K m (full-length NDM-1 [1]; substrate hydrolysis, 20 mM HEPES pH 6.8, 30°C, listed as ceftazidime) of 129 µM.
For CO/N=C(\C(=O)N[C@@H]1C(=O)N2C(C(=O)O)=CCS[C@H]12)c1csc(N)n1 [Ceftizoxime, ceftizoxime], the K m (full-length NDM-1 [1]; [12]) was 29 ± 2 µM.
With CO/N=C(\C(=O)N[C@@H]1C(=O)N2C(C(=O)O)=C(COC(N)=O)CS[C@H]12)c1ccco1 [Cefuroxime, cefuroxime] the K m (full-length NDM-1 [1]; [12]) was 12 µM and 12 ± 1 µM.
In the case of COC(=O)c1cc(OCc2ccccc2)c(C(=O)OC)s1 [Compound 1], the IC50 (full-length NDM-1 [2]) is reported as > 300 µM, the “MICs of meropenem in combination with NDM-1 inhibitors” value (“MICs … with NDM-1 inhibitors” for short) ([3]; inhibitor at 6.25 µM) is reported as 256 µg/mL and the “MICs … with NDM-1 inhibitors” value ([3]; inhibitor at 12.5 µM) is reported as 256 µg/mL. The “MICs … with NDM-1 inhibitors” value ([3]; inhibitor at 25.0 µM) was 256 µg/mL, the “MICs … with NDM-1 inhibitors” value ([3]; inhibitor at 50.0 µM) was 256 µg/mL and the “synergistic antibacterial activity with meropenem” value (“synergistic antibacterial activity” for short) [3] was “did not exhibited synergistic antibacterial effect”. The solubility [4] was “precipitated out at high concentrations”.
In the case of COC(=O)c1sc(C(=O)OC)c(OCc2ccccc2)c1OCc1ccccc1 [Compound 2], the IC50 (full-length NDM-1 [2]) is reported as > 100 µM, the “MICs … with NDM-1 inhibitors” value ([3]; inhibitor at 6.25 µM) is reported as 256 µg/mL and the “MICs … with NDM-1 inhibitors” value ([3]; inhibitor at 12.5 µM) is reported as 256 µg/mL. For the same compound, the “MICs … with NDM-1 inhibitors” value ([3]; inhibitor at 25.0 µM) was 256 µg/mL, the “MICs … with NDM-1 inhibitors” value ([3]; inhibitor at 50.0 µM) was 256 µg/mL and the “synergistic antibacterial activity” value [3] was “did not exhibited synergistic antibacterial effect”. The solubility [4] was “precipitated out at high concentrations”.
For COC(=O)c1sc(C(=O)OC)c(OCc2nnn[nH]2)c1OCc1nnn[nH]1 [Compound 3], the IC50 (full-length NDM-1 [2]) was 980 µM, the “MICs … with NDM-1 inhibitors” value ([3]; inhibitor at 6.25 µM) was 256 µg/mL and the “MICs … with NDM-1 inhibitors” value ([3]; inhibitor at 12.5 µM) was 256 µg/mL. For the same compound, the “MICs … with NDM-1 inhibitors” value ([3]; inhibitor at 25.0 µM) was 128 µg/mL, the “MICs … with NDM-1 inhibitors” value ([3]; inhibitor at 50.0 µM) was 32 µg/mL and the “MICs … with NDM-1 inhibitors” value ([3]; inhibitor at 100.0 µM) was 32 µg/mL. The “synergistic antibacterial activity” value [3] was “showed synergistic antibacterial activity” and the solubility [4] was “better solubility”.
In the case of O=C(O)C(C(=O)O)c1cc(Cc2nnn[nH]2)sc1Cc1nnn[nH]1 [Compound 4], the IC50 (full-length NDM-1 [2]) is reported as 280 µM, the “MICs … with NDM-1 inhibitors” value ([3]; inhibitor at 6.25 µM) is reported as 128 µg/mL and the “MICs … with NDM-1 inhibitors” value ([3]; inhibitor at 12.5 µM) is reported as 64 µg/mL. The “MICs … with NDM-1 inhibitors” value ([3]; inhibitor at 25.0 µM) was 64 µg/mL, the “MICs … with NDM-1 inhibitors” value ([3]; inhibitor at 50.0 µM) was 32 µg/mL and the “MICs … with NDM-1 inhibitors” value ([3]; inhibitor at 100.0 µM) was 16 µg/mL. For the same compound, the “sensitization of the strain to clinically achievable concentrations of meropenem” value [3] was “able to sensitize the strain to clinically achievable concentrations of meropenem”, the “synergistic antibacterial activity” value [3] was “showed synergistic antibacterial activity” and the solubility [4] was “stronger solubility”.
With O=C(O)C(C(=O)O)c1ccsc1 [Compound 5, 3-thiophenemalonic acid] the IC50 (full-length NDM-1 [2]) was 610 µM, the “MICs … with NDM-1 inhibitors” value ([3]; inhibitor at 6.25 µM) was 256 µg/mL and the “MICs … with NDM-1 inhibitors” value ([3]; inhibitor at 12.5 µM) was 128 µg/mL. The “MICs … with NDM-1 inhibitors” value ([3]; inhibitor at 25.0 µM) was 64 µg/mL, the “MICs … with NDM-1 inhibitors” value ([3]; inhibitor at 50.0 µM) was 32 µg/mL and the “MICs … with NDM-1 inhibitors” value ([3]; inhibitor at 100.0 µM) was 16 µg/mL. The “sensitization of the strain to clinically achievable concentrations of meropenem” value [3] was “able to sensitize the strain to clinically achievable concentrations of meropenem” and the “synergistic antibacterial activity” value [3] was “showed synergistic antibacterial activity”.
With C[C@@H](O)[C@H]1C(=O)N2C(C(=O)O)=C(SCCN=CN)C[C@H]12 [Imipenem, imipenem] the K m (full-length NDM-1 [1]; [12]) was 127 ± 11 µM and the K m (full-length NDM-1 [1]; substrate hydrolysis, 20 mM HEPES pH 6.8, 30°C, listed as imipenem) was 127 µM.
C[C@@H](O)[C@H]1C(=O)N2C(C(=O)O)=C(S[C@@H]3CN[C@H](C(=O)N(C)C)C3)[C@H](C)[C@H]12 [Meropenem, meropenem] gave a K m (full-length NDM-1 [1]; [12]) of 68 ± 6 µM, a V max (full-length NDM-1 [1]; [12]) of 2.0 ± 0.15 µM/s and a k cat (full-length NDM-1 [1]; [12]) of 4.0 s⁻¹. It also gave a K m (full-length NDM-1 [1]; substrate hydrolysis, 20 mM HEPES pH 6.8, 30°C, listed as meropenem) of 68 µM, an MIC ([3]; Escherichia coli) of 256 µg/mL and an MIC (E. coli BL21 (DE3)) of 2 µg/mL.
In the case of “full-length NDM-1 (Klebsiella pneumoniae)”, the kcat [5] is reported as 10 s⁻¹ and 11.4 s⁻¹, the kcat/Km [5] is reported as 630000 M⁻¹ s⁻¹ and the kcat [6] is reported as 3.6 s⁻¹. For the same compound, the kcat/Km [6] was 30000 M⁻¹ s⁻¹, the kcat [7] was 10 s⁻¹ and 10.8 s⁻¹ and the kcat/Km [7] was 90000 M⁻¹ s⁻¹. For the same compound, the kcat [8] was 2.6 s⁻¹, the kcat/Km [8] was 220000 M⁻¹ s⁻¹ and the kcat [9] was 10 s⁻¹ and 16.7 s⁻¹. It also gave a kcat/Km [9] of 1.28e+06 M⁻¹ s⁻¹, a kcat [10] of 3 s⁻¹ and a kcat/Km [10] of 100000 M⁻¹ s⁻¹. For the same compound, the kcat [11] was 1.4 s⁻¹ and the kcat/Km [11] was 40000 M⁻¹ s⁻¹.

Source: publication PMC3652859, “Inhibitor Discovery of Full-Length New Delhi Metallo-β-Lactamase-1 (NDM-1)” (PLoS ONE, 2013)
